Source: patent US6858714B2, “Cyclic GMP phosphodiesterase” (Incyte Corporation, priority 1997, dated 2005)

Tests used:
PDE9A [1] = molecular target: T1, PDE9A (Homo sapiens, UniProt O76083); assay: Effect of known PDE inhibitors on PDE9A activity (hydrolysis of 3H-cGMP); format: biochemical; settings: cGMP as substrate, FIG. 5; for inhibition of PDE9A activity: up to 100 μM of inhibitor
T1 construct: A 1.8 kb region of PDE9A encoding the full length protein (nucleotides 61-1842) was amplified and cloned; made in house; host or cells: Sf9 insect cells (baculovirus, pFASTBAC)
T1 sequence (O76083 whole entry): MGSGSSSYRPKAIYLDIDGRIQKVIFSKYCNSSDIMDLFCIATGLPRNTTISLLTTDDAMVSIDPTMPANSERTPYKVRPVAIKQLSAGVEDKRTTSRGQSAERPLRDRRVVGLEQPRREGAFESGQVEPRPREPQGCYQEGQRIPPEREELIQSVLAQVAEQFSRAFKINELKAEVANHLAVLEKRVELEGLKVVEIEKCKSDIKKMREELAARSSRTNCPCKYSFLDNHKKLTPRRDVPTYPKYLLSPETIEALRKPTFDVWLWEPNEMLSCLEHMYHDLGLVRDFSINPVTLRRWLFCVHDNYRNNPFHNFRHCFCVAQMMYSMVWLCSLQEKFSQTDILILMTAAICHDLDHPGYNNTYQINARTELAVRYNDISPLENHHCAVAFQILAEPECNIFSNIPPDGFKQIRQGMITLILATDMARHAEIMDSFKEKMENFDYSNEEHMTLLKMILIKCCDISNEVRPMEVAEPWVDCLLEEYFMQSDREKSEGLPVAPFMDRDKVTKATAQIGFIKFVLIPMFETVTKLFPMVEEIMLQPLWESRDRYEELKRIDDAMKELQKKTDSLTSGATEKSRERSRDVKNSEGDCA
Experimental: A 1.8 kb region of PDE9A encoding the full length of the protein was cloned into the baculovirus transfer vector pFASTBAC, expressed in sf9 cells, and a cell lysate prepared from these cells for enzyme assays. […] PDE9A was not inhibited by up to 100 μM of rolipram (inhibitor of PDE4), dipyridamole (inhibitor of PDE2, 4, 5, and 6), SKF94120 (inhibitor of PDE3), vinpocetine (inhibitor of PDE1), or IBMX (non-specific PDE inhibitor). […] Of particular note is the expression of PDE9A in Crohn's disease.
PDE9A to be used for assay was prepared from transfected Sf9 cells. Cells were harvested by centrifugation, resuspended in homogenization buffer (20 mM Tris-HCl, 2 mM benzamidine, 1 mM EDTA, 0.25 M sucrose, 100 uM PMSF, pH 7.5 ) at 1×10^7 cells/ml, and disrupted using a Branson sonicating probe (3×10 second pulses). Cellular debris was removed by centrifugation at 14,000×g for 10 minutes. The supernatant was stored at −70° C.
PDE activity was assayed by measuring the conversion of ^3H-cGMP to ^3H-guanosine in the presence of PDE9A and 5′ nucleotidase. A one-step assay was run using a 100 uL assay containing 50 mM Tris-HCl pH 7.5, 10 mM MgCl^2, 0.1 unit 5′ nucleotidase (from Crotalus atrox venom), and 0.0064-2.0 uM ^3H-cGMP. The reaction was started by the addition of 25 μl of diluted enzyme supernatant. Reactions were run directly in mini Poly-Q scintillation vials (Beckman Instruments Inc., Fullerton Calif.). Assays were incubated at 37° C. for a time period that would yield less than 15% cGMP hydrolysis in order to avoid non-linearity associated with product inhibition. The reaction was stopped by the addition of 1 ml of Dowex AG1x8 (Cl form) resin (1:3 slurry). Three ml of scintillation fluid were added, and the vials were mixed. The resin in the vials was allowed to settle for 1 hr before counting. Soluble radioactivity associated with ^3H-guanosine was quantitated using a Beta scintillation counter. The amount of radioactivity recovered is proportional to the activity of PDE9A in the reaction.

PDE9A [2] = molecular target: T1, PDE9A; assay: Kinetics of enzyme activity of recombinant PDE9A (Lineweaver-Burke analysis); format: biochemical; settings: FIG. 3, read-out: Km of PDE9A for cGMP as substrate

CCOC(=O)C1=C[C@]2(CC)CCCN3CCc4c(n1c1ccccc41)[C@@H]32 [vinpocetine]
inhibition of PDE9A activity (PDE9A [1]): not inhibited

CC(=O)Nc1ccc(-c2c[nH]c(=O)cn2)cc1 [SKF94120]
inhibition of PDE9A activity (PDE9A [1]): not inhibited

CC(C)Cn1c(=O)n(C)c(=O)c2[nH]cnc21 [IBMX]
inhibition of PDE9A activity (PDE9A [1]): not inhibited

COc1ccc(C2CNC(=O)C2)cc1OC1CCCC1 (stereo not shown) [rolipram]
inhibition of PDE9A activity (PDE9A [1]): not inhibited

OCCN(CCO)c1nc(N2CCCCC2)c2nc(N(CCO)CCO)nc(N3CCCCC3)c2n1 [dipyridamole]
inhibition of PDE9A activity (PDE9A [1]): not inhibited

CCCOc1ccccc1-c1nc2nn[nH]c2c(=O)[nH]1 [zaprinast]
IC50 (PDE9A [1]; recombinant PDE9A from Sf9 cell lysate, read-out: IC50 for inhibition of PDE9A): 35 µM

Nc1nc2c(ncn2[C@@H]2O[C@@H]3COP(=O)(O)O[C@H]3[C@H]2O)c(=O)[nH]1 [cGMP]
Km (PDE9A [2]): 0.17 µM
